In assay [1] the target is T1, D(4) dopamine receptor (Homo sapiens, UniProt P21917).
T1 sequence (P21917 whole entry): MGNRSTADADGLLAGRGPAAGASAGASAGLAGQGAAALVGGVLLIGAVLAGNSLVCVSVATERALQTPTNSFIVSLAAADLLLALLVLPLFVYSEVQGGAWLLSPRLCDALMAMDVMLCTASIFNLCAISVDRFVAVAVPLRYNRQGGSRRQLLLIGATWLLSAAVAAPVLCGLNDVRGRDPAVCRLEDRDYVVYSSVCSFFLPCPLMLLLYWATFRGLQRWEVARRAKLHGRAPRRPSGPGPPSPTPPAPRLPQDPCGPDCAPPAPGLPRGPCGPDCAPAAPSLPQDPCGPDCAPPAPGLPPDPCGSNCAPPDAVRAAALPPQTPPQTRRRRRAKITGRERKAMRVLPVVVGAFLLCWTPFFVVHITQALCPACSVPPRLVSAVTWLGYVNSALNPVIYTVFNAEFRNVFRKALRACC
Put plainly: Displacement of [3H]spiperone from human dopamine D4 receptor expressed in CHOKI cells. In kind it is cell-based. On the technique in general: In a radioligand displacement assay an active substance lowers the binding of a labelled ligand.

The species entered for assay [2] is Homo sapiens. The assay is described as follows: Selectivity ratio of IC50 for human 5HT7 to IC50 for human 5HT6 receptor.
Assay [3] is filed under the species Homo sapiens. The assay is described as follows: Selectivity ratio of IC50 for human 5HT2A to IC50 for human 5HT6 receptor.
Assay [4] addresses T2, 5-hydroxytryptamine receptor 2C (Homo sapiens) (UniProt P28335).
T2 sequence (whole entry): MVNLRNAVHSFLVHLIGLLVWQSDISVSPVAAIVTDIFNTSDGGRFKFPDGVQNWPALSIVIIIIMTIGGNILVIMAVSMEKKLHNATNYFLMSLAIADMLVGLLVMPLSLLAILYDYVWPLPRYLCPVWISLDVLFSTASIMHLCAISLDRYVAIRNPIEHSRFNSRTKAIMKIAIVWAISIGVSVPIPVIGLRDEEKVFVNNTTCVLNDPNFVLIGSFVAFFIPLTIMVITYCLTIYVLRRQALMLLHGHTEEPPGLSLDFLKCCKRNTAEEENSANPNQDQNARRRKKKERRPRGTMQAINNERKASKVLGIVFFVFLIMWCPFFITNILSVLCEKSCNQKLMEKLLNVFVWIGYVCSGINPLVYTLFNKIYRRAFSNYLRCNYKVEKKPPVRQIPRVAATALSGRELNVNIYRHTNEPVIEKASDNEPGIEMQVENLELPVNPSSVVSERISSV
Put plainly: Antagonist activity at human 5HT2C expressed in CHO cells assessed as inhibition of 5-HT-stimulated [35S]GTPgamma binding. In kind it is functional, cell-based.

The species named for assay [5] is Homo sapiens. The assay is described as follows: Selectivity ratio of IC50 for human dopamine D3 to IC50 for human 5HT2C.
The species entered for assay [6] is Homo sapiens. The assay is described as follows: Selectivity ratio of IC50 for human 5HT7 to IC50 for human 5HT2C.
Assay [7] is filed under the species Homo sapiens. Put plainly: Selectivity ratio of IC50 for human dopamine D3 to IC50 for human 5HT6 receptor.
The target in assay [8] is T3, 5-hydroxytryptamine receptor 6 (Homo sapiens, UniProt P50406). The assay is described as follows: Antagonist activity at human 5HT6 expressed in human HeLa cells assessed as inhibition of 5-HT-stimulated cAMP accumulation. (Cyclic AMP is a second messenger, typically raised through Gs and lowered through Gi signalling.)
Target sequence in this assay (P50406 whole entry, looked up): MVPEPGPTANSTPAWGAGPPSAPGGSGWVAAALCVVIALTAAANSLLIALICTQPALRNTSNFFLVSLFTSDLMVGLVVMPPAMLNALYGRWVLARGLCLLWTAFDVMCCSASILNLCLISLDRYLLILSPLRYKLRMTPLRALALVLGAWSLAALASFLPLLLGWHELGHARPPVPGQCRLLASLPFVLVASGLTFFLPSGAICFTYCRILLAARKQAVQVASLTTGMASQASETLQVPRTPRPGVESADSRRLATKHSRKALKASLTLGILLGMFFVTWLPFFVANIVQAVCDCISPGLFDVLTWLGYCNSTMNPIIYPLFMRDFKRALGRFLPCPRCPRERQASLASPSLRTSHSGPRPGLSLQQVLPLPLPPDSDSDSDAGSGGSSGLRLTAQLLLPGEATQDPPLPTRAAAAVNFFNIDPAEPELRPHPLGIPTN
For assay [9], the species on record is Homo sapiens. The assay is described as follows: Selectivity ratio of IC50 for human dopamine D4 to IC50 for human 5HT6 receptor.
Assay [10] deals with T3, 5-hydroxytryptamine receptor 6. The assay is described as follows: Antagonist activity at human 5HT6 receptor expressed in human HeLa cells assessed as inhibition of 5-HT-stimulated cAMP production. Type of assay: functional, cell-based.
Target sequence in this assay (P50406 whole entry): as the sequence (P50406 whole entry, looked up) above
Assay [11] addresses D(3) dopamine receptor (Homo sapiens, UniProt P35462). The assay is described as follows: Displacement of [3H]spiperone from human dopamine D3 receptor expressed in CHOKI cells. Type of assay: cell-based.
Assay [12] is filed under the species Homo sapiens. Put plainly: Selectivity ratio of IC50 for human 5HT1A to IC50 for human 5HT2C.
Assay [13] has as its target Serotonin 2 receptors; 5-HT2a & 5-HT2c (Homo sapiens) (UniProt P28223+P28335). The assay is described as follows: Selectivity ratio of IC50 for human 5HT2A to IC50 for human 5HT2C.
Assay [14] is filed under the species Homo sapiens. Put plainly: Selectivity ratio of IC50 for human dopamine D2 to IC50 for human 5HT6 receptor.
Assay [15] is filed under the species Homo sapiens. Put plainly: Selectivity ratio of IC50 for human dopamine D4 to IC50 for human 5HT2C.
Assay [16] deals with D(2) dopamine receptor (Homo sapiens, UniProt P14416). The assay is described as follows: Displacement of [3H]spiperone from human dopamine D2 expressed in CHOKI cells. In kind it is cell-based.
For assay [17], the species on record is Homo sapiens. The assay is described as follows: Selectivity ratio of IC50 for human 5HT1A to IC50 for human 5HT6 receptor.
For assay [18], the target named is T4, 5-hydroxytryptamine receptor 2C (Homo sapiens, UniProt P28335).
T4 sequence (P28335 whole entry): T2 sequence (whole entry)
The assay is described as follows: Displacement of [3H]mesulergine from human 5HT2C expressed in CHOKI cells. Type of assay: cell-based.

The target of assay [19] is 5-hydroxytryptamine receptor 2A (Homo sapiens, UniProt P28223). Put plainly: Displacement of [3H]ketanserin from human 5HT2A expressed in CHOKI cells. Type of assay: cell-based.
For assay [20], the target named is T3, 5-hydroxytryptamine receptor 6. Put plainly: Displacement of [3H]LSD from human 5HT6 receptor expressed in HEK293 cells. In kind it is cell-based.
Target sequence in this assay (P50406 whole entry): as the sequence (P50406 whole entry, looked up) above
In assay [21] the target is T5, 5-hydroxytryptamine receptor 1A (Homo sapiens, UniProt P08908).
T5 sequence (P08908 whole entry): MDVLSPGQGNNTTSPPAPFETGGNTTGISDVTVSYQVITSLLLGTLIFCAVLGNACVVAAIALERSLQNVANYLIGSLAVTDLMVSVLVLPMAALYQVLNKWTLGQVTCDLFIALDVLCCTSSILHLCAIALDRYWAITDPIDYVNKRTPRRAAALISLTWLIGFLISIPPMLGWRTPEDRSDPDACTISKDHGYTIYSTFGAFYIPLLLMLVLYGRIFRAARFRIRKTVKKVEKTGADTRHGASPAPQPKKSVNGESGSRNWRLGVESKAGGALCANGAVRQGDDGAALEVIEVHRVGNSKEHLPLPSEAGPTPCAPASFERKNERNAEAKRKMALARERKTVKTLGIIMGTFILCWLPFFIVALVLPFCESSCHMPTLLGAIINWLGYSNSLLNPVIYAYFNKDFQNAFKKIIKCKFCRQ
The assay is described as follows: Displacement of [3H]8-OH-DPAT from human 5HT1A expressed in CHOKI cells. Type of assay: cell-based.

For assay [22], the species on record is Homo sapiens. Put plainly: Selectivity ratio of IC50 for human dopamine D2 to IC50 for human 5HT2C.

Each structure is given as a SMILES string. Calls of active or inactive are those of the source. No cut-off for these calls is given here.

The term IC50 denotes the concentration that gives 50% inhibition. A lower IC50 goes with greater potency.

D(2) dopamine receptor, sequence (P14416 whole entry): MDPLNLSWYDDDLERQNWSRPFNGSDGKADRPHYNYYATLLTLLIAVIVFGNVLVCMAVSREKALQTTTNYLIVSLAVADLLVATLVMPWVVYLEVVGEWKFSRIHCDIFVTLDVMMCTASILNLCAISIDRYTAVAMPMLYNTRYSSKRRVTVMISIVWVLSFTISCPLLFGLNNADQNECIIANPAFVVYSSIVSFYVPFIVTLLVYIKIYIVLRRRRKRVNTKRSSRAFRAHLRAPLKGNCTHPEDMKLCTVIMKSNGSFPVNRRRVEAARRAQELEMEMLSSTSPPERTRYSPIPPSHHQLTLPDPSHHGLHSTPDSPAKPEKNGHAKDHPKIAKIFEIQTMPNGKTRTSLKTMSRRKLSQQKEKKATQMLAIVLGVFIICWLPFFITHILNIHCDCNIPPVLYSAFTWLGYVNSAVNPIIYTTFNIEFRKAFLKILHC
Serotonin 2 receptors; 5-HT2a & 5-HT2c (Homo sapiens), sequence (P28223 whole entry, looked up, one chain of several): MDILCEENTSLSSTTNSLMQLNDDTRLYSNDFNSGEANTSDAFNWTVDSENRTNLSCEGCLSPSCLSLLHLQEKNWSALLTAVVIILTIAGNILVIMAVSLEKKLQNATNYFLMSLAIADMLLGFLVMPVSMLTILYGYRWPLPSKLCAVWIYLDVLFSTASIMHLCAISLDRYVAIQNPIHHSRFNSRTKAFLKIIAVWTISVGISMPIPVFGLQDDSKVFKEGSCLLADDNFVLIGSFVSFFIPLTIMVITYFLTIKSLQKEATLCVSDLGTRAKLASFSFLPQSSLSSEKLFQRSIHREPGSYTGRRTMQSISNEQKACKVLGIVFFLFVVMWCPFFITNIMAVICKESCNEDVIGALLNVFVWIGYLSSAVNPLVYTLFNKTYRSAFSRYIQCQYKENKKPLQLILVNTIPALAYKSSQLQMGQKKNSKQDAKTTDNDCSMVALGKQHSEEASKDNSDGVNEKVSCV
5-hydroxytryptamine receptor 2A, sequence (P28223 whole entry): as the sequence (P28223 whole entry, looked up, one chain of several) above
D(3) dopamine receptor, sequence (P35462 whole entry): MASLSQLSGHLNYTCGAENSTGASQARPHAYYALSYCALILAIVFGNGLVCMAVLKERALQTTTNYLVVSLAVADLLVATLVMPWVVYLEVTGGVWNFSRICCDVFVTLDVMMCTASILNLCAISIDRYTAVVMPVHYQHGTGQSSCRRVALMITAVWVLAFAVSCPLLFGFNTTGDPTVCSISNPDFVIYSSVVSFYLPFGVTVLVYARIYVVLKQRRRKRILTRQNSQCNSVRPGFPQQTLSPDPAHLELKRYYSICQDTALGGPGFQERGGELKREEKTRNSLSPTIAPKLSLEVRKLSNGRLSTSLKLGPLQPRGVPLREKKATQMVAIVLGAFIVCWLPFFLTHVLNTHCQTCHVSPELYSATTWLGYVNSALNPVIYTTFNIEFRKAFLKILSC

Take `CC(C)N(c1cccc(N2CCN(C)CC2)c1)S(=O)(=O)c1ccc2ccccc2c1`: the IC50 in [1] is more than 1000 nM; in assay [11] it was 248 nM; in assay [16] it was more than 10000 nM; in assay [18], 4 nM; in assay [19], 118 nM; in [20], 3 nM. The same molecule registered an IC50 in [21] of more than 1000 nM. Moreover, the Ratio IC50 in assay [2], in assay [3], in assay [5], in [6], in [7] and in [9] was more than 25 each time. In addition, the Ratio IC50 in assay [12], in assay [13], in assay [14], in assay [15], in [17] and in [22] was more than 25 in each case. The inhibition result in assay [4] is “Dose-dependent effect”. The inhibition result in [8] and in assay [10] was “Active” each time.

Values taken from ChEMBL document CHEMBL1221248, “Synthesis and SAR of (piperazin-1-yl-phenyl)-arylsulfonamides: a novel series of atypical antipsychotic agents” (Bioorg Med Chem Lett, 2010).
